# In US7138361B2, “Herbicidal heterocycles” (E. I. du Pont de Nemours and Company, priority 2000, dated 2006):
# Columns and labels:
# Assay type in all cases: in vivo
# [1] = test system: cocklebur (Xanthium strumarium); test: Test B postemergence; settings: 13 to 15 days
# In short: (§1)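 Greenhouse test: chemicals are formulated in a surfactant-containing non-phytotoxic solvent and applied either preemergence to planted seeds or postemergence to plants 2 to 18 cm tall. Response is rated visually versus controls after 13 to 15 days, 0 meaning no effect and 100 complete control.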
# wild oat (Avena fatua) = test: Test B postemergence; settings: 13 to 15 days
# In short: as §1
# [2] = test system: crabgrass (Digitaria sanguinalis); test: Test B postemergence; settings: 13 to 15 days
# In short: as §1
# [3] = test system: lambsquarters (Chenopodium album); test: Test B postemergence; settings: 13 to 15 days
# In short: as §1
# [4] = test system: cocklebur (Xanthium strumarium); test: Test C preemergence; settings: for Plant response rating (0 to 100), Cocklebur: visual evaluation after 12 to 14 days
# In short: (§2)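 Pre- and postemergence treatments used a non-phytotoxic solvent/surfactant formulation; post-treated plants measured 2 to 18 cm. Greenhouse hold 12–14 d; % control estimated visually relative to controls.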
# [5] = test system: bermudagrass (Cynodon dactylon); test: Test C preemergence; settings: for Plant response rating (0 to 100 where 0 is no effect and 100 is complete control), Bermudagrass: visual evaluation after 12 to 14 days
# In short: as §2
# [6] = test system: common ragweed (Ambrosia elatior); test: Test C preemergence
# In short: as §2
# kochia (Kochia scoparia) = test: Test C preemergence; settings: for Plant response rating (0 to 100), Kochia: visual evaluation after 12 to 14 days
# In short: as §2
# Nightshade = test: Test C preemergence
# [7] = test system: johnsongrass (Sorghum halepense); test: Test C preemergence; settings: for Plant response rating (0 to 100), Johnsongrass: visual evaluation after 12 to 14 days
# In short: as §2
# [8] = test system: giant foxtail (Setaria faberii); test: Test C preemergence; settings: for Plant response rating (0 to 100), Foxtail, Giant: visual evaluation after 12 to 14 days
# In short: as §2
# Sunflower [9] = test: Test C preemergence; settings: Rate 125 g/ha; scale 0 to 100, 0 no effect, 100 complete control
# [10] = test system: pigweed (Amaranthus retroflexus); test: Test C preemergence
# In short: as §2
# [11] = test system: woolly cupgrass (Eriochloa villosa); test: Test C preemergence; settings: for Plant response rating (0 to 100), Cupgrass, Woolly: visual evaluation after 12 to 14 days
# In short: as §2
# [12] = test system: Surinam grass (Brachiaria decumbens); test: Test C preemergence; settings: for Plant response rating (0 to 100), Surinam grass: visual evaluation after 12 to 14 days
# In short: as §2
# [13] = test system: velvetleaf (Abutilon theophrasti); test: Test C preemergence
# In short: as §2
# soybean (Glycine max) = test: Test C preemergence
# In short: as §2
# [14] = test system: lambsquarters (Chenopodium album); test: Test C preemergence
# In short: as §2
# corn (Zea mays) = test: Test C preemergence; settings: for Plant response rating (0 to 100), Corn: visual evaluation after 12 to 14 days
# In short: as §2
# Sunflower [15] = test: Test C preemergence; settings: Rate 500 g/ha, visual evaluation after 12 to 14 days
# [16] = Rate 125 g/ha, scale 0 (no effect) to 100 (complete control)
# [17] = Rate 500 g/ha, scale 0 to 100, 0 is no effect, 100 is complete control
# [18] = Rate 125 g/ha, scale 0 to 100, 0 no effect, 100 complete control
# [19] = preemergence, Rate 62 g/ha, scale 0 to 100
# [20] = preemergence, Rate 500 g/ha, visual evaluation after 12 to 14 days
# [21] = preemergence, Rate 250 g/ha, scale 0 to 100, 0 no effect, 100 complete control
compound,measurement,setting,value
CSc1cccc(N2CCC(n3ccc(C(C)(C)C)n3)C2=O)c1 (centres unmarked) [Compound 86],"Plant response rating, Cocklebur",[1]; [16],0
same,"Plant response rating, Cocklebur",[1]; [17],0
same,"Plant response rating, Wild Oat",wild oat (Avena fatua); [16],0
same,"Plant response rating, Wild Oat",wild oat (Avena fatua); [17],0
same,"Plant response rating, Crabgrass",[2]; [16],0
same,"Plant response rating, Crabgrass",[2]; [17],0
same,"Plant response rating, Lambsquarters",[3]; [16],0
same,"Plant response rating, Lambsquarters",[3]; [17],50
same,"Plant response rating, Cocklebur",[4]; [18],0
same,"Plant response rating, Cocklebur",[4]; [19],0
same,"Plant response rating (0 to 100), Cocklebur","[4]; preemergence, Rate 250 g/ha",0
same,"Plant response rating (0 to 100), Cocklebur","[4]; preemergence, Rate 500 g/ha",0
same,"Plant response rating, Bermudagrass",[5]; [18],30
same,"Plant response rating, Bermudagrass",[5]; [19],10
same,"Plant response rating (0 to 100 where 0 is no effect and 100 is complete control), Bermudagrass","[5]; preemergence, Rate 250 g/ha",90
same,"Plant response rating (0 to 100 where 0 is no effect and 100 is complete control), Bermudagrass","[5]; preemergence, Rate 500 g/ha",100
same,"Plant response rating, Ragweed, Common",[6]; [18],0
same,"Plant response rating, Ragweed, Common",[6]; [19],0
same,"Plant response rating (0 to 100), Ragweed, Common",[6]; [20],0
same,"Plant response rating, Ragweed, Common",[6]; [21],0
same,"Plant response rating, Kochia",kochia (Kochia scoparia); [18],90
same,"Plant response rating, Kochia",kochia (Kochia scoparia); [19],70
same,"Plant response rating (0 to 100), Kochia","kochia (Kochia scoparia); preemergence, Rate 250 g/ha",100
same,"Plant response rating (0 to 100), Kochia","kochia (Kochia scoparia); preemergence, Rate 500 g/ha",100
same,"Plant response rating, Nightshade","Nightshade; Rate 62 g/ha, scale 0 to 100",0
same,"Plant response rating, Nightshade",Nightshade; [18],0
same,"Plant response rating, Nightshade","Nightshade; Rate 250 g/ha, scale 0 to 100, 0 no effect, 100 complete control",0
same,"Plant response rating, Johnsongrass",[7]; [18],20
same,"Plant response rating, Johnsongrass",[7]; [19],20
same,"Plant response rating (0 to 100), Johnsongrass","[7]; preemergence, Rate 250 g/ha",40
same,"Plant response rating (0 to 100), Johnsongrass","[7]; preemergence, Rate 500 g/ha",50
same,"Plant response rating, Foxtail, Giant",[8]; [18],0
same,"Plant response rating, Foxtail, Giant",[8]; [19],0
same,"Plant response rating (0 to 100), Foxtail, Giant","[8]; preemergence, Rate 250 g/ha",80
same,"Plant response rating (0 to 100), Foxtail, Giant","[8]; preemergence, Rate 500 g/ha",100
same,"Plant response rating, Sunflower",Sunflower [9],20
same,"Plant response rating, Pigweed",[10]; [18],100
same,"Plant response rating, Pigweed",[10]; [19],70
same,"Plant response rating (0 to 100), Pigweed",[10]; [20],100
same,"Plant response rating, Pigweed",[10]; [21],0
same,"Plant response rating, Cupgrass, Woolly",[11]; [18],30
same,"Plant response rating, Cupgrass, Woolly",[11]; [19],30
same,"Plant response rating (0 to 100), Cupgrass, Woolly","[11]; preemergence, Rate 250 g/ha",90
same,"Plant response rating (0 to 100), Cupgrass, Woolly","[11]; preemergence, Rate 500 g/ha",100
same,"Plant response rating, Surinam grass",[12]; [18],20
same,"Plant response rating, Surinam grass",[12]; [19],20
same,"Plant response rating (0 to 100), Surinam grass","[12]; preemergence, Rate 250 g/ha",20
same,"Plant response rating (0 to 100), Surinam grass","[12]; preemergence, Rate 500 g/ha",30
same,"Plant response rating, Velvetleaf",[13]; [18],0
same,"Plant response rating, Velvetleaf",[13]; [19],0
same,"Plant response rating (0 to 100), Velvetleaf",[13]; [20],70
same,"Plant response rating, Velvetleaf",[13]; [21],0
same,"Plant response rating, Soybean",soybean (Glycine max); [18],0
same,"Plant response rating, Soybean",soybean (Glycine max); [19],0
same,"Plant response rating (0 to 100), Soybean",soybean (Glycine max); [20],0
same,"Plant response rating, Soybean",soybean (Glycine max); [21],0
same,"Plant response rating, Lambsquarters",[14]; [18],100
same,"Plant response rating, Lambsquarters",[14]; [19],100
same,"Plant response rating (0 to 100), Lambsquarters",[14]; [20],100
same,"Plant response rating, Lambsquarters",[14]; [21],100
same,"Plant response rating, Corn",corn (Zea mays); [18],0
same,"Plant response rating, Corn",corn (Zea mays); [19],0
same,"Plant response rating (0 to 100), Corn","corn (Zea mays); preemergence, Rate 250 g/ha",0
same,"Plant response rating (0 to 100), Corn","corn (Zea mays); preemergence, Rate 500 g/ha",30
same,"Plant response rating (0 to 100), Sunflower",Sunflower [15],20
